From patent publication US20240181081A1, “Compositions and Methods for Treatment of Myotonic Dystrophy Type 1 with CRISPR/SACAS9” (Vertex Pharmaceuticals Incorporated, priority 2021, published 2024)

Tests used:
[1] = tested on: CUG RNA foci in primary DM1 patient myoblasts; test: DOUBLE-cut screening: FISH staining of RNA foci in primary DM1 patient myoblasts; assay type: cell-based, human; conditions: sgRNA pair RNP, 72 hrs post nucleofection; for % of CUG foci free nuclei (DNA-PKi): 3 μM Compound 6 for 48 hrs; for % of CUG foci free nuclei (Vehicle): DMSO 48 hrs
Experimental: (§1) RNPs were assembled with recombinant SaCas9 protein (Aldevron) and chemically modified sgRNAs (Synthego) at a ratio of 1:3 (protein:sgRNA). For SINGLE-cut screening, RNP complexes were assembled with 30 pmol of SaCas9 and 90 pmol of sgRNA in P5 Primary Cell Nucleofector Solution (Lonza). After incubation at room temperature for 20 minutes, 10 μL of RNP complex was mixed with two hundred thousand primary myoblasts resuspended in 10 μL of P5 Nucleofector Solution. For DOUBLE-cut screening, RNP complexes were first assembled for individual sgRNAs with 20 pmol of SaCas9 protein and 60 pmol of sgRNAs in 5 μL of P5 Nucleofector Solution. After incubation at room temperature for 20 minutes, the two RNP complexes (one for upstream sgRNA and one for downstream sgRNA) were mixed at 1:1 ratio and then further mixed with two hundred thousand primary myoblasts resuspended in 10 μL of P5 Nucleofector Solution.
(§2) The Nucleofector 96-well Shuttle System (Lonza) was used to deliver the SaCa9/sgRNA RNPs into primary DM1 patient myoblasts using the nucleofection program CM138. Following nucleofection, myoblasts from each well of nucleofection shuttle were split into six wells of the 96-well cell culture plate (Greiner, 655090) coated with matrigel. The first three wells were treated with DMSO for 48 hrs before changing to fresh myoblast growth medium, and the other three wells were treated with 3 μM of DNA-PKi Compound 6 for 48 hrs before changing to fresh myoblast growth medium. 72 hrs post nucleofection, two wells of DMSO-treated myoblasts and two wells of DNA-PKi-treated myoblasts from each nucleofection were harvested for genomic DNA extraction using the Kingfisher Flex purification system (Thermal Fisher), whereas one well of DMSO-treated myoblasts and one well of DNA-PKi-treated myoblasts were stained for RNA foci by FISH staining.
Primary myoblasts were fixed for 15 min with 4% paraformaldehyde (PFA) and washed five times with 1×PBS for 10 min each at room temperature. Before staining, cells were permeabilized with 0.5% triton X-100 in 1×PBS for 5 min at room temperature, and then washed with 30% formamide and 2× saline-sodium citrate (SSC) mixture for 10 min at room temperature. Cells were then stained with 1 ng/μL of Cy3-PNA(CAG) 5 probe (PNA Bio, F5001) diluted in 30% formamide, 2×SSC, 2 μg/mL BSA, 66 μg/mL yeast tRNA, and 2 mM vanadyl complex for 15 min at 80° C. Following probe staining, cells were then washed in 30% formamide and 2×SSC mixture for 30 min at 42° C., then washed in 30% formamide and 2×SSC mixture for 30 min at 37° C., and then washed in 1×SSC solution for 10 min at room temperature, and finally washed in 1×PBS for 10 min at room temperature. Cells were next stained with anti-MBNL1 antibody (Santa Cruz, 3A4) diluted in 1% bovine serum albumin (BSA) for overnight at 4° C., and washed twice with 1×PBS for 10 min each at room temperature. Cells were then incubated with the secondary antibody goat […] Alexa 647 (Thermo Fisher, A32728) diluted in 1% BSA for 1 hr at room temperature, and washed twice with 1×PBS for 10 min each at room temperature. Next, cells were stained with Hoechst solution (Thermo Fisher, H3569) at 0.1 mg/ml for 5 min, and washed once with 1×PBS for 5 min. PBS was aspirated and fresh 100 μl of fresh PBS was added to each well. High-throughput acquisition of images was completed with the ImageXpress Micro Confocal High-Content Imaging System (Molecular Devices). RNA foci quantifications were accomplished with a customized analysis module of the MetaXpress program (Molecular Devices).
Next, DOUBLE-cut screening was performed to assess the efficiency of paired sgRNAs-induced CTG repeat excision and RNA foci reduction. 90 SaCas9 sgRNA pairs formed by one upstream sgRNA and one downstream sgRNA were assembled with recombinant SaCas9 protein into RNP complex and nucleofected into primary DM1 patient myoblasts. […]

[2] = tested on: CTG repeat expansion in the 3′ UTR of human DMPK gene; test: DOUBLE-cut screening: CTG repeat excision by loss-of-signal ddPCR in primary DM1 patient myoblasts; assay type: cell-based; conditions: sgRNA pair RNP, mean of upstream and downstream ddPCR assays; for % of CTG repeat excision efficiency by ddPCR (DNA-PKi): 3 μM Compound 6 for 48 hrs; for % of CTG repeat excision efficiency by ddPCR (Vehicle): DMSO 48 hrs
Experimental: as §1, §2
The primers and probes of ddPCR were designed using the online primer design software Primer3Plus (http://www.bioinformatics.nl/cgi-bin/primer3plus/primer3plus.cgi). The two Target primers/probe sets were used to detect CTG repeat excision, and the Reference primers/probe set was used to amplify a region located in Exon 1 of human DMPK gene and it served as a reference control for the Target sets. The 24 μL of ddPCR reaction consisted of 12 μL of Supermix for Probes (no dUTP) (Bio-Rad Laboratories), 1 μL of Reference primers mix (21.6 μM), 1 μL of Reference probe (6 μM), 1 μL of Target primers mix (21.6 μM), 1 μL of Target probe (6 μM), and 8 μL of sample genomic DNA. Droplets were generated using probe oil with the QX200 Droplet Generator (Bio-Rad Laboratories). Droplets were transferred to a 96-well PCR plate, sealed and cycled in a C1000 deep well Thermocycler (Bio-Rad Laboratories) under the following cycling protocol: 1 cycle at 95° C. for 10 min; 40 cycles of 94° C. for 30 sec, and 58° C. for 1 min; 1 cycle at 98° C. for 10 min (for enzyme inactivation). The cycled plate was then transferred and read in the FAM and HEX channels using the Bio-Rad QX200 Droplet Reader (Bio-Rad Laboratories). ddPCR analysis was performed with the Bio-Rad QuantaSoft Pro Software.
Next, DOUBLE-cut screening was performed to assess the efficiency of paired sgRNAs-induced CTG repeat excision and RNA foci reduction. 90 SaCas9 sgRNA pairs formed by one upstream sgRNA and one downstream sgRNA were assembled with recombinant SaCas9 protein into RNP complex and nucleofected into primary DM1 patient myoblasts. Nucleofected myoblasts were treated with either DMSO (vehicle) or 3 μM of Compound 6 (DNA-PKi) for 48 hrs. 72 hrs post nucleofection, myoblasts were subjected to either genomic DNA isolation or RNA foci staining.
One upstream and one downstream loss-of-signal droplet digital PCR (ddPCR) assays were used to determine the efficiency of CTG repeat excision. ddPCR signals would be abolished upon excision of the CTG repeat expansion in these loss-of-signal ddPCR assays. […]

Substance	% of CUG foci free nuclei (DNA-PKi) [1]	% of CUG foci free nuclei (Vehicle) [1]	% of CTG repeat excision efficiency by ddPCR (DNA-PKi) [2]	% of CTG repeat excision efficiency by ddPCR (Vehicle) [2]
SaU1 + SaD2: SaCas9 sgRNA pair, SEQ ID NOs: 1 and 10 (guide 1 GCCCCGGAGTCGAAGACAGTTC; guide 2 TCGGCCAGGCTGAGGCCCTGAC; listed as DNA, chemistry not fully specified)	84.27%	76.74%	54.31%	47.82%
SaU1 + SaD3: SaCas9 sgRNA pair, SEQ ID NOs: 1 and 11 (guide 1 GCCCCGGAGTCGAAGACAGTTC; guide 2 CAACGATAGGTGGGGGTGCGTG; listed as DNA, chemistry not fully specified)	81.32%	47.32%	52.18%	33.47%
SaU1 + SaD4: SaCas9 sgRNA pair, SEQ ID NOs: 1 and 12 (guide 1 GCCCCGGAGTCGAAGACAGTTC; guide 2 ACTTTGCGAACCAACGATAGGT; listed as DNA, chemistry not fully specified)	87.86%	81.45%	61.00%	41.92%
SaU1 + SaD5: SaCas9 sgRNA pair, SEQ ID NOs: 1 and 13 (guide 1 GCCCCGGAGTCGAAGACAGTTC; guide 2 GGGTTTGGCAAAAGCAAATTTC; listed as DNA, chemistry not fully specified)	82.90%	70.23%	53.67%	30.65%
SaU1 + SaD6: SaCas9 sgRNA pair, SEQ ID NOs: 1 and 14 (guide 1 GCCCCGGAGTCGAAGACAGTTC; guide 2 CTTTTGCCAAACCCGCTTTTTC; listed as DNA, chemistry not fully specified)	70.98%	31.66%	49.69%	32.51%
SaU1 + SaD7: SaCas9 sgRNA pair, SEQ ID NOs: 1 and 15 (guide 1 GCCCCGGAGTCGAAGACAGTTC; guide 2 GGGGCGCGGGATCCCCGAAAAA; listed as DNA, chemistry not fully specified)	80.16%	49.51%	56.69%	34.21%
SaU1 + SaD10: SaCas9 sgRNA pair, SEQ ID NOs: 1 and 18 (guide 1 GCCCCGGAGTCGAAGACAGTTC; guide 2 TTGGGGGTCCTGTAGCCTGTCA; listed as DNA, chemistry not fully specified)	84.12%	75.91%	61.44%	37.72%
SaU1 + SaD11: SaCas9 sgRNA pair, SEQ ID NOs: 1 and 19 (guide 1 GCCCCGGAGTCGAAGACAGTTC; guide 2 CAAAACGTGGATTGGGGTTGTT; listed as DNA, chemistry not fully specified)	74.03%	41.32%	52.38%	26.52%
SaU1 + SaD12: SaCas9 sgRNA pair, SEQ ID NOs: 1 and 20 (guide 1 GCCCCGGAGTCGAAGACAGTTC; guide 2 TCAGTGCATCCAAAACGTGGAT; listed as DNA, chemistry not fully specified)	84.94%	69.78%	63.43%	37.77%
SaU1 + SaD13: SaCas9 sgRNA pair, SEQ ID NOs: 1 and 21 (guide 1 GCCCCGGAGTCGAAGACAGTTC; guide 2 CCCAACAACCCCAATCCACGTT; listed as DNA, chemistry not fully specified)	74.44%	35.75%	54.59%	25.67%
SaU7 + SaD2: SaCas9 sgRNA pair, SEQ ID NOs: 7 and 10 (guide 1 CGCGGCCGGCGAACGGGGCTCG; guide 2 TCGGCCAGGCTGAGGCCCTGAC; listed as DNA, chemistry not fully specified)	81.28%	70.29%		
SaU8 + SaD2: SaCas9 sgRNA pair, SEQ ID NOs: 8 and 10 (guide 1 GGCTCGAAGGGTCCTTGTAGCC; guide 2 TCGGCCAGGCTGAGGCCCTGAC; listed as DNA, chemistry not fully specified)	82.91%	76.39%		
